Experimental data as given in patent US20230035127A1, “CULTURE AND DIFFERENTIATION OF PLURIPOTENT STEM CELLS” (University of Maryland, College Park, priority 2021, published 2023).
Several values for one entry are separate records, joined by “and”; a condition that tells them apart may be missing. Equal values may be shown once. Entries after “also recorded” stand apart in the source; their conditions may differ.

What was measured:
[1] = tested on: eiPSCs; experiment: Survival/yield of PSCs in 3D suspension culture; format: cell-based, human; conditions: for improvement of cell yield (number of viable cells): 3D culture
Experimental: To obtain 3D iPSC spheroids, the iPSC colonies under 2D culture at ˜80% confluence were treated with Versene for 2 min, rinsed with PBS, and further detached from the substrate by gentle pipetting. The detached iPSCs were re-suspended in mTeSR1 with Rock inhibitor (Y27632) at 0, 1, 5, or 10 μM. Afterward, the medium was supplemented with 0.35% (v/v) methylcellulose. The cell suspension (12 ml) containing ˜4×10^6 cells was pushed through a cell strainer with 100 μm mesh size. Later, the suspension of iPSC clumps was transferred into a petri dish (diameter: 10 cm) for culture in a humidified incubator at 37° C. and 5% CO2 for 2 days, during which the 2D iPSC clumps grew into 3D iPSC spheroids. Then, the medium was changed to mTeSR1 (supplemented with 0.35% methylcellulose) with no rock inhibitor, to further culture for 2 days before cardiac differentiation. To determine the number of cells per eiPSC spheroid, roughly equal numbers of the spheroids from either the 1 or 10 μM RI group were pooled together and trypsinized to dissociate the cells. The dissociated cells were then resuspended in 1.4 ml of the aforementioned iPSC maintenance medium and the cell number was counted using a hemocytometer. Three independent runs with 282, 260, and 256 spheroids for the 1 μM RI group and 273, 298, and 286 spheroids for the 10 μM RI group were conducted.

[2] = tested on: eiPSC-derived cardiac spheroids; experiment: Re-plating of cardiac spheroids in regular cell culture petri dish (attachment); format: cell-based, human; conditions: day 13.5 spheroids, 3 days after re-plating
Experimental: After 3 days, ˜61% of the cardiac spheroids in the 10 μM RI group attached to the 2D surface, and some of the cells migrated out of the spheroids appeared to be neuron-like with neurite-like processes (FIG. 4B-C). […] To confirm the aforementioned observation of neuron-like cells in the 10 μM RI group, immunofluorescence staining of cryosectioned cardiac spheroids on day 12.5 in the 1 and 10 μM RI groups was conducted. […] Therefore, studies were performed to further understand the mechanisms of the improved cardiac differentiation with the reduced RI.

[3] = tested on: IMR90-1 human iPSCs; experiment: Flow cytometry of IMR90-1 cardiac spheroids; format: cell-based; conditions: day 12.5
Experimental: For flow cytometry, the eiPSC spheroids were collected on day 0 and the cardiac spheroids were collected on days 1.5, 2.5, 12.5, 15. The spheroids were dissociated to single cells by 0.25% trypsin for 5 min at 37° C. and then fixed with 75% ethanol at 4° C. overnight. The cells were permeabilized with 0.05% Triton X-100 for 3 min and then rinsed with 1×PBS twice. The cell numbers were adjusted to 1×10^6 cells/tube in 700 μL of saline for each marker. These cells were incubated with primary antibodies including OCT-4 (1:500 dilution, Cell Signaling Technologies), NANOG (1:500 dilution, Cell Signaling Technologies), SSEA-4 (1:500 dilution, Cell Signaling Technologies), BRACHYURY (1:500; Santa Cruz Biotechnology), NKX2.5 (1:500; Santa Cruz Biotechnology), cTnT (1:500 dilution, Cell Signaling Technologies), cTnI (1:500 dilution, Cell Signaling Technologies), α-ACTININ (1:500 dilution; Santa Cruz Biotechnology), MUSASHI-1 (1:500; R&D Systems), and TUJ-1 (1:500; R&D Systems) at 4° C. overnight. Subsequently, the samples were rinsed with 1×PBS thrice before incubation with corresponding secondary antibodies: goat anti-mouse IgG FITC and goat anti-rabbit IgG PE, respectively (1:1000; Invitrogen) for 1 h at RT. The samples were then rinsed with 1×PBS thrice before flow cytometry. The negative controls were the cells incubated with respective primary antibodies as aforementioned (no incubation with a secondary antibody).

Question: `C[C@@H](N)[C@H]1CC[C@H](C(=O)Nc2ccncc2)CC1.Cl.Cl` (relative stereo) [RI, (+)-(R)-trans-4-(1-aminoethyl)-N-(4-pyridyl) cyclo-hexanecarboxamide dihydrochloride] was tested. Which “cell survival and yield” value ([1]; 1 μM RI compared to 0 μM RI control, day 0, dihydrochloride) did it give?
Answer: Its value is “significantly more; also recorded: significantly increases”.

Question: And the “improvement of cell yield (number of viable cells)” value ([1]; 10 μM RI compared to 0 μM RI)?
Answer: Its value is “about 3 times”.

Question: What about the “improvement of cell yield (number of viable cells)” value ([1]; 10 μM RI compared to 1 μM RI) of the same molecule?
Answer: The value was roughly 2 times.

Question: And the “percentage of cardiac spheroids attached to the 2D surface” value ([2]; 5 μM RI)?
Answer: The value was roughly 41%.

Question: What about the “percentage of cardiac spheroids attached to the 2D surface” value ([2]; 10 μM RI, dihydrochloride) of the same molecule?
Answer: Its value is ~61% and > 60%.

Question: What about the “cells positive for MUSASHI” value ([3]; 1 μM RI) of the same molecule?
Answer: The value was “negligible”.

Question: What about the “cells positive for cTnT” value ([3]; 1 μM RI) of the same molecule?
Answer: Its value is 91%.

Question: And the “cells positive for MUSASHI” value ([3]; 10 μM RI)?
Answer: Its value is roughly 20%.

Question: What about the “cells positive for cTnT” value ([3]; 10 μM RI) of the same molecule?
Answer: The value was 32%.
